Drawing on US20210395239A1 (Hoffmann-La Roche Inc., priority 2018, published 2021), this text covers IC50 for 18 molecules.

This assay addresses T1, human TLR8 (Homo sapiens, UniProt Q9NR97).
T1 construct: host or cells: HEK293 (HEK-Blue hTLR8)
T1 sequence (Q9NR97 27-1041): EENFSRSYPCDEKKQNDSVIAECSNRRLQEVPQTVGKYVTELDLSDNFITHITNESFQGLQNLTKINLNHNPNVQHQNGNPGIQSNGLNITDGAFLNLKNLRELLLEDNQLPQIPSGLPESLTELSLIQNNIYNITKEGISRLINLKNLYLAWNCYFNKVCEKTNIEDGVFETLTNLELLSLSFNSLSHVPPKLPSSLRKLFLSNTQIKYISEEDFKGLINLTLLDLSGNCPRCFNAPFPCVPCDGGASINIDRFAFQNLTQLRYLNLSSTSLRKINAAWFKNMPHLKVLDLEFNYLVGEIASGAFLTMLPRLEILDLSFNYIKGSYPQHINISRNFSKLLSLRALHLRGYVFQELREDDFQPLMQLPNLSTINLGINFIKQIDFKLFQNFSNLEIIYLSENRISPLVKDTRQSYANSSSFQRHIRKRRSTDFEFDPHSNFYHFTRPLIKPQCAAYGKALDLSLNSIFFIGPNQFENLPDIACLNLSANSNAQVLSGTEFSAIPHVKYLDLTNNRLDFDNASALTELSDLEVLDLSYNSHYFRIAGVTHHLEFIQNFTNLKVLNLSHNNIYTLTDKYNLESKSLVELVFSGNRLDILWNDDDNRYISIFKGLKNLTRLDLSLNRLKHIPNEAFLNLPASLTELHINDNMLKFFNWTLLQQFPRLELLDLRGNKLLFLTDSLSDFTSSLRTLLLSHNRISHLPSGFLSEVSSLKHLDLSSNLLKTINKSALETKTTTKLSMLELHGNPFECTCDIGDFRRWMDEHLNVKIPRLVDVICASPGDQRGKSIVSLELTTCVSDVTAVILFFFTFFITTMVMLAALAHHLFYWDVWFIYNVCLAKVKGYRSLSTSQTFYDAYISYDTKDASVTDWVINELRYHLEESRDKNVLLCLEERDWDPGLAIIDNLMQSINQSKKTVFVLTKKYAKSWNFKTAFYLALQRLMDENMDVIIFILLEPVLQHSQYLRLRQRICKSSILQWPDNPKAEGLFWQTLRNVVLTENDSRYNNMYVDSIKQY
Put plainly: HEK293-Blue-hTLR-8 cells assay (SEAP reporter, R848 stimulation). The settings on record: HEK293-Blue-hTLR8 cells, R848, 20 hrs; read-out: HEK/hTLR8 IC50. The format is cell-based. In short, it runs like this: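 HEK293-Blue-hTLR8 cells (NF-κB/AP-1-driven SEAP) incubated 20 h at 37° C with serially diluted compound (1% DMSO) plus R848 stimulation. Supernatant SEAP measured with QUANTI-Blue, 2 h at 37° C, absorbance 620–655 nm.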
On to `Cc1cc(N2CCN(C[C@H]3CN(c4ccc(C#N)c5ncccc45)C[C@@H](C)O3)CC2)nc(N2C[C@@H](N)[C@@H](F)C2)n1` [Example 55, 5-[(2S,6R)-2-[[4-[2-[(3R,4S)-3-amino-4-fluoro-pyrrolidin-1-yl]-6-methyl-pyrimidin-4-yl]piperazin-1-yl]methyl]-6-methyl-morpholin-4-yl]quinoline-8-carbonitrile], for which the IC50 turned out to be 3 nM.

Consider `C[C@@H]1CN(c2ccc(C#N)n3ncc(F)c23)C[C@H](CN2CCN(c3ccc([C@@H]4CNCCO4)cc3)CC2)O1` [Example 177, 3-fluoro-4-[(2R,6S)-2-methyl-6-[[4-[4-[(2R)-morpholin-2-yl]phenyl]piperazin-1-yl]methyl]morpholin-4-yl]pyrazolo[1,5-a]pyridine-7-carbonitrile], for which the IC50 came to 27 nM.

Consider `C[C@@H]1CN(c2ccc(C#N)c3ncccc23)C[C@H](CN2CCN(c3ccnc(N4CCNCC(O)C4)n3)CC2)O1` (stereo partly drawn) [Example 25, 5-[(2S,6R)-2-[[4-[2-(6-hydroxy-1,4-diazepan-1-yl)pyrimidin-4-yl]piperazin-1-yl]methyl]-6-methyl-morpholin-4-yl]quinoline-8-carbonitrile], for which the IC50 worked out at 7 nM.

For the molecule `C[C@@H]1CN(c2ccc(C#N)c3ncccc23)C[C@H](CN2CCN(c3cccc(C4CNCCO4)c3)CC2)O1` (stereo partly drawn) [Example 62, 5-[(2R,6S)-2-methyl-6-[[4-(3-morpholin-2-ylphenyl)piperazin-1-yl]methyl]-morpholin-4-yl]quinoline-8-carbonitrile], the IC50 was 14 nM.

`COC1CN(c2ccc(N3CCN(C[C@H]4CN(c5ccc(C#N)c6ncccc56)C[C@@H](C)O4)CC3)cn2)CC1N` (stereo partly drawn) [Example 43, 5-[(2S,6R)-2-[[4-[6-(3-amino-4-methoxy-pyrrolidin-1-yl)-3-pyridyl]piperazin-1-yl]methyl]-6-methyl-morpholin-4-yl]quinoline-8-carbonitrile]: the IC50 worked out at 11 nM.

As to `C[C@@H]1CN(c2ccc(C#N)c3ncccc23)C[C@H](CN2CCN(c3ccnc(N4CCN(C(=O)CN(C)C)CC4)n3)CC2)O1` [Example 32, 5-[(2S,6R)-2-[[4-[2-[4-[2-(dimethylamino)acetyl]piperazin-1-yl]pyrimidin-4-yl]piperazin-1-yl]methyl]-6-methyl-morpholin-4-yl]quinoline-8-carbonitrile], the IC50 turned out to be 3 nM.

With `C[C@@H]1CN(c2cc(=O)n(C)c3ncccc23)C[C@H](CN2CC(c3ccc(N4CC5(CNCCO5)C4)cc3)C2)O1` [Example 173, 1-methyl-4-[(2R,6S)-2-methyl-6-[[3-[4-(5-oxa-2,8-diazaspiro[3.5]nonan-2-yl)phenyl]azetidin-1-yl]methyl]morpholin-4-yl]-1,8-naphthyridin-2-one], the IC50 turned out to be 74 nM.

Take `Cc1cc(N2CCN(C[C@H]3CN(c4ccc(C#N)c5ncccc45)C[C@@H](C)O3)CC2)nc(N2CCNCC(O)C2)n1` (stereo partly drawn) [Example 66, 5-[(2S,6R)-2-[[4-[2-(6-hydroxy-1,4-diazepan-1-yl)-6-methyl-pyrimidin-4-yl]piperazin-1-yl]methyl]-6-methyl-morpholin-4-yl]quinoline-8-carbonitrile]: the IC50 came out at 8 nM.

For `CO[C@H]1CN(c2cccc(N3CCN(C[C@H]4CN(c5ccc(C#N)c6ncccc56)C[C@@H](C)O4)CC3)n2)C[C@H]1N` [Example 42, 5-[(2S,6R)-2-[[4-[6-[(3R,4S)-3-amino-4-methoxy-pyrrolidin-1-yl]-2-pyridyl]piperazin-1-yl]methyl]-6-methyl-morpholin-4-yl]quinoline-8-carbonitrile], the IC50 turned out to be 13 nM.

In the case of `CO[C@H]1CN(c2nccc(N3CCN(C[C@H]4CN(c5ccc(C#N)c6ncccc56)C[C@@H](C)O4)CC3)n2)C[C@@H]1N` [Example 26, 5-[(2S,6R)-2-[[4-[2-trans-(3-amino-4-methoxy-pyrrolidin-1-yl)pyrimidin-4-yl]piperazin-1-yl]methyl]-6-methyl-morpholin-4-yl]quinoline-8-carbonitrile], the IC50 amounted to 3 nM.

On to `C[C@@H]1CN(c2ccc(C#N)c3ncccc23)C[C@H](CN2CCN(c3ccc(N4CCNCC4)nc3)CC2)O1` [Example 13, 5-[(2R,6S)-2-methyl-6-[[4-(6-piperazin-1-yl-3-pyridyl)piperazin-1-yl]methyl]morpholin-4-yl]quinoline-8-carbonitrile], for which the IC50 was 5 nM.

For the molecule `C[C@@H]1CN(c2cc(=O)n(C)c3ncccc23)C[C@H](CN2CC(c3ccc(N4CC(F)[C@H](N)C4)cc3)C2)O1` (stereo in doubt) [Example 174, 4-[(2S,6R)-2-[[3-[4-[(3R,4R)-3-amino-4-fluoro-pyrrolidin-1-yl]phenyl]azetidin-1-yl]methyl]-6-methyl-morpholin-4-yl]-1-methyl-1,8-naphthyridin-2-one], the IC50 stood at 159 nM.

Take `C[C@@H]1CN(c2ccc(C#N)n3ncc(F)c23)C[C@H](CN2CCN(c3ccc(N4CC5(CNCCO5)C4)nc3)CC2)O1` [Example 169, 3-fluoro-4-[(2R,6S)-2-methyl-6-[[4-[6-(5-oxa-2,8-diazaspiro[3.5]nonan-2-yl)-3-pyridyl]piperazin-1-yl]methyl]morpholin-4-yl]pyrazolo[1,5-a]pyridine-7-carbonitrile]: the IC50 came to 30 nM.

In the case of `C[C@@H]1CN(c2ccc(C#N)n3ncc(F)c23)C[C@H](CN2CCN(c3ccc(N4CC[C@@H](N)[C@H](F)C4)nc3)CC2)O1` [Example 175, 4-[(2S,6R)-2-[[4-[6-[(3R,4R)-4-amino-3-fluoro-1-piperidyl]-3-pyridyl]piperazin-1-yl]methyl]-6-methyl-morpholin-4-yl]-3-fluoro-pyrazolo[1,5-a]pyridine-7-carbonitrile], the IC50 worked out at 12 nM.

As for `CO[C@H]1CN(c2nc(C)cc(N3CCN(C[C@H]4CN(c5ccc(C#N)c6ncccc56)C[C@@H](C)O4)CC3)n2)CC1N` (relative stereo) [Example 59, 5-[(2R,6S)-2-methyl-6-[[4-[6-methyl-2-[trans-3-amino-4-methoxy-pyrrolidin-1-yl]pyrimidin-4-yl]piperazin-1-yl]methyl]morpholin-4-yl]quinoline-8-carbonitrile], the IC50 amounted to 3 nM.

For `COC1CNC[C@H]1Nc1cccc(N2CCN(C[C@H]3CN(c4ccc(C#N)c5ncccc45)C[C@@H](C)O3)CC2)n1` (stereo in doubt) [Example 39, 5-[(2S,6R)-2-[[4-[6-[[(3R,4R)-4-methoxypyrrolidin-3-yl]amino]-2-pyridyl]piperazin-1-yl]methyl]-6-methyl-morpholin-4-yl]quinoline-8-carbonitrile], the IC50 was 23 nM.

As to `C[C@@H]1CN(c2ccc(C#N)c3ncccc23)C[C@H](CN2CCN(c3nccc(N4CCNCC4)n3)CC2)O1` [Example 14, 5-[(2R,6S)-2-methyl-6-[[4-(4-piperazin-1-ylpyrimidin-2-yl)piperazin-1-yl]methyl]morpholin-4-yl]quinoline-8-carbonitrile], the IC50 came out at 3 nM.

For `C[C@@H]1CN(c2ccc(C#N)c3ncccc23)C[C@H](CN2CCN(c3cc(N4CCNCC4)ccn3)CC2)O1` [Example 9, 5-[(2R,6S)-2-methyl-6-[[4-(4-piperazin-1-yl-2-pyridyl)piperazin-1-yl]methyl]morpholin-4-yl]quinoline-8-carbonitrile], the IC50 came to 3 nM.
